In PMC8540948, “Design and Synthesis of Newly Synthesized Acrylamide Derivatives as Potential Chemotherapeutic Agents against MCF-7 Breast Cancer Cell Line Lodged on PEGylated Bilosomal Nano-Vesicles for Improving Cytotoxic Activity” (Pharmaceuticals, 2021):

Tests used:
[1] = tested on: breast cancer MCF-7 cell line; assay: MTT cytotoxicity against breast cancer MCF-7 cell line; type: cell-based; conditions: MTT assay, 24 h drug treatment
Description: Compounds 2–5d were evaluated for their cytotoxic activities against breast cancer MCF-7 cell line by using an MTT colorimetric assay. Cisplatin was used as reference drug in this study. […] Additionally, the therapeutic safety of N-(3-hydroxy-4-methoxy) aryl amide derivative 4e was determined by screening its cytotoxic activity against normal breast cell line (MCF-10A) using an MTT colorimetric assay. […]
(§1) Cytotoxic activity of the newly prepared acrylamide derivatives 2–5d were carried out against breast MCF-7 cancer cell line using the MTT assay method. Compound 4e was screened for its effects on normal breast cell line MCF-10A. Cells at density of 1 × 10^4 were seeded in a 96-well plate at 37 °C for 48 h under 5% CO2. After incubation, the cells were treated with different concentrations of the test compounds and incubated for 24 h. After 24 h of drug treatment, 20 μL of MTT solution at 5 mg/mL was applied and incubated for 4 h at 37 °C. Dimethyl sulphoxide (DMSO) in volume of 100 µL was added to each well to dissolve the purple formazan that had formed. The color intensity of the formazan product, which represents the growth condition of the cells, is quantified by using an ELISA plate reader (EXL 800, USA) at 570 nm absorbance. The experimental conditions were carried out with at least three replicates, and the experiments were repeated at least three times.

MCF-7 cells = assay: Cell cycle analysis by DNA flow cytometry; type: cell-based; conditions: MCF-7, 48 h, 4e at IC50 (2.11 μM), PTX 0.1 μM
Description: In order to study the mechanism of the cytotoxic activity of compound 4e, cell cycle analysis was investigated in breast cancer MCF-7 cells by DNA flow cytometry analysis at IC50 dose values of compound 4e for 48 h. Paclitaxel (PTX, 0.1 μM) was used as the reference drug in this study.
MCF-7 cells (2 × 10^5/well) were harvested and washed twice in PBS. After that, the cells were incubated at 37 °C and 5% CO2. The medium was replaced with DMSO 1% v/v containing the tested compound 4e (2.11 μM) and PTX (0.1 μM), then incubated for 48 h, washed twice in PBS, fixed with 70% ethanol, rinsed again with PBS and then stained with DNA fluorochrome PI for 15 min at 37 °C. The samples were analyzed by flow cytometry on a FACS Calibur flow cytometer (Becton and Dickinson, Heidelberg, Germany).

[2] = tested on: normal breast cell line (MCF-10A); assay: MTT cytotoxicity against normal breast cell line MCF-10A; type: cell-based; conditions: MTT assay
Description: Compounds 2–5d were evaluated for their cytotoxic activities against breast cancer MCF-7 cell line by using an MTT colorimetric assay. Cisplatin was used as reference drug in this study. […] Additionally, the therapeutic safety of N-(3-hydroxy-4-methoxy) aryl amide derivative 4e was determined by screening its cytotoxic activity against normal breast cell line (MCF-10A) using an MTT colorimetric assay.
as §1

β-tubulin = β-tubulin inhibition percentage by ELISA (tubulin polymerization inhibition); type: biochemical; conditions: 5 μM concentration
tubulin assembly = tested on: tubulin assembly; parameters: method as in PMID 25721862; conditions: cited from earlier work

melting point	Compound	IC50 ([1]; Homo sapiens, MCF7, 24 h)	other results
166 to 168 °C	COc1ccccc1CNC(=O)C(=Cc1ccco1)NC(=O)c1cc(OC)c(OC)c(OC)c1 [Compound 5b, N-[1-(Furan-2-yl)-3-((2-methoxybenzyl)amino)-3-oxoprop-1-en-2-yl]-3,4,5-trimethoxybenzamide]	5.03 ± 1.01 µM	
217 to 219 °C	COc1cc(C(=O)NC(=Cc2ccco2)C(=O)Nc2cccc(C)c2)cc(OC)c1OC [Compound 4b, N-[1-(Furan-2-yl)-3-oxo-3-(m-tolylamino)prop-1-en-2-yl]-3,4,5-trimethoxybenzamide]	10.4 ± 1.09 µM	
214 to 216 °C	COc1cc(C(=O)NC(=Cc2ccco2)C(=O)Nc2ccc(O)cc2)cc(OC)c1OC [Compound 4d, N-[1-(Furan-2-yl)-3-(4-hydroxyphenylamino)-3-oxoprop-1-en-2-yl]-3,4,5-trimethoxybenzamide]	18.4 ± 1.14 µM	
124 to 126 °C	COc1ccc(CNC(=O)C(=Cc2ccco2)NC(=O)c2cc(OC)c(OC)c(OC)c2)cc1OC [Compound 5d, N-[3-((3,4-Dimethoxybenzyl)amino)-1-(furan-2-yl)-3-oxoprop-1-en-2-yl]-3,4,5-trimethoxybenzamide]	2.61 ± 0.32 µM	
175 to 177 °C	COc1cc(C(=O)NC(=Cc2ccco2)C(=O)NCc2cccc(C)c2)cc(OC)c1OC [Compound 5a, N-[1-(Furan-2-yl)-3-((3-methylbenzyl)amino)-3-oxoprop-1-en-2-yl]-3,4,5-trimethoxybenzamide]	3.92 ± 0.21 µM	
164 to 166 °C	COc1cccc(CNC(=O)C(=Cc2ccco2)NC(=O)c2cc(OC)c(OC)c(OC)c2)c1 [Compound 5c, N-[1-(Furan-2-yl)-3-(3-methoxybenzylamino)-3-oxoprop-1-en-2-yl]-3,4,5-trimethoxybenzamide]	2.61 µM	IC50 [1]: 3.03 ± 0.39 µM
249 to 251 °C	COc1ccc(NC(=O)C(=Cc2ccco2)NC(=O)c2cc(OC)c(OC)c(OC)c2)cc1 [Compound 4c, N-[1-(Furan-2-yl)-3-(4-methoxyphenylamino)-3-oxoprop-1-en-2-yl]-3,4,5-trimethoxybenzamide]	26.2 ± 1.21 µM	

More lines, now with the values behind:

Compound	melting point	IC50 ([1]; Homo sapiens, MCF7, 24 h)	other results
COc1cc(C(=O)NC(=Cc2ccco2)C(=O)NC(C)C)cc(OC)c1OC [Compound 3, N-[1-(Furan-2-yl)-3-(isopropylamino)-3-oxoprop-1-en-2-yl]-3,4,5-trimethoxybenzamide]	168 to 170 °C	4.73 ± 0.27 µM	
COc1ccc(NC(=O)C(=Cc2ccco2)NC(=O)c2cc(OC)c(OC)c(OC)c2)cc1O [Compound 4e, N-[1-(Furan-2-yl)-3-(3-hydroxy-4-methoxyphenylamino)-3-oxoprop-1-en-2-yl]-3,4,5-trimethoxybenzamide]		2.11 ± 0.19 µM	percentage of cells in pre-G1 phase (MCF-7 cells; untreated control 1.73%): 24.62%; percentage of cells in G2/M phase (MCF-7 cells; untreated control 8.39%): 42.50%; IC50 ([2]; Homo sapiens): 29.3 ± 1.21 µM; β-tubulin inhibition percentage (β-tubulin): 89%
COc1ccc(C(=O)/C=C/c2cc(C(=O)c3cc(OC)c(OC)c(OC)c3)ccc2OC)cc1N [Compound IV]			IC50 (tubulin assembly): 0.6 µM
COc1cc(C(=O)NC(=Cc2ccco2)C(=O)Nc2ccccc2C)cc(OC)c1OC [Compound 4a, N-[1-(Furan-2-yl)-3-oxo-3-(o-tolylamino)prop-1-en-2-yl]-3,4,5-trimethoxybenzamide]	222 to 224 °C	27.3 ± 1.21 µM	
N.N.[Cl][Pt][Cl] [Cisplatin, reference compound]			IC50 [1]: 1.02 ± 0.12 µM; IC50 [2]: 22.62 ± 0.19 µM
CCOC(=O)C(=Cc1ccco1)NC(=O)c1cc(OC)c(OC)c(OC)c1 [Compound 2, Ethyl 3-(Furan-2-yl)-2-(3,4,5-trimethoxybenzamido)acrylate]	126 to 128 °C	> 50 µM	
